The values that follow come from the NIST ThermoML archive (doi:10.1021/je060068f).

Molecules are shown by their SMILES. ± gives the expanded uncertainty stated by the source.

The conditions of this data set: Liquid; pulse-heating method.
Regarding `CCCCCOC(=O)c1ccccc1C(=O)OCCCCC`, the Critical pressure was found to be 1430 ± 50 kPa and the Critical temperature came to 811 ± 9 K.

In the case of `CCCOC(=O)c1ccccc1C(=O)OCCC` [1,2-benzenedicarboxylic acid dipropyl ester], the Critical pressure is on record as 1900 ± 70 kPa and the Critical temperature was 784 ± 9 K.

For `CCCCC(CC)COC(=O)c1ccccc1C(=O)OCC(CC)CCCC` (centres undefined) [bis(2-ethylhexyl) 1,2-benzenedicarboxylate], the Critical pressure worked out at 1070 ± 40 kPa and the Critical temperature stood at 835 ± 9 K.

Regarding `CCCCOC(=O)c1ccccc1C(=O)OCCCC` [dibutyl phthalate], the Critical pressure is recorded as 1660 ± 60 kPa and the Critical temperature amounted to 797 ± 9 K.

Consider `CCCCCCCCCCOC(=O)c1ccccc1C(=O)OCCCCCCCCCC` [didecyl phthalate], for which the Critical pressure was found to be 940 ± 30 kPa and the Critical temperature was determined as 870 ± 10 K.

As for `CCOC(=O)c1ccccc1C(=O)OCC` [diethyl phthalate], the Critical pressure came to 2260 ± 80 kPa and the Critical temperature is given as 776 ± 9 K.

On to `CCCCCCCOC(=O)c1ccccc1C(=O)OCCCCCCC` [diheptyl phthalate], for which the Critical pressure turned out to be 1240 ± 40 kPa and the Critical temperature was determined as 830 ± 9 K.

In the case of `CCCCCCOC(=O)c1ccccc1C(=O)OCCCCCC` [dihexyl phthalate], the Critical pressure is 1340 ± 50 kPa and the Critical temperature worked out at 817 ± 9 K.

On to `COC(=O)c1ccccc1C(=O)OC` [dimethyl 1,2-benzenedicarboxylate], for which the Critical pressure amounted to 2770 ± 100 kPa and the Critical temperature was found to be 772 ± 9 K.

With `CCCCCCCCCOC(=O)c1ccccc1C(=O)OCCCCCCCCC` [dinonyl phthalate], the Critical pressure turned out to be 1020 ± 40 kPa and the Critical temperature was found to be 858 ± 9 K.

Take `CCCCCCCCOC(=O)c1ccccc1C(=O)OCCCCCCCC` [dioctyl 1,2-benzenedicarboxylate]: the Critical pressure is recorded as 1080 ± 40 kPa and the Critical temperature is given as 840 ± 9 K.

As to `CCCCCCCCCCCOC(=O)c1ccccc1C(=O)OCCCCCCCCCCC` [diundecyl phthalate], the Critical pressure was determined as 890 ± 30 kPa and the Critical temperature amounted to 886 ± 10 K.
